Paper PMC9599461, “Stereoselectivity in the Membrane Transport of Phenylethylamine Derivatives by Human Monoamine Transporters and Organic Cation Transporters 1, 2, and 3” (Biomolecules, 2022)
Values joined by “and” are separate entries in the source; they are usually repeats but may differ in a detail not shown here. Equal entries are not always repeated.

What was measured:
SERT [1] = target: T1, SERT (Homo sapiens, UniProt P31645); test: Stereoselective uptake into SERT-overexpressing HEK293 cells;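 also: uptake into HEK293 cells stably expressing human SERT over 2 min, enantiomers measured in cell lysate by chiral HPLC-MS/MS, normalized to total protein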
T1 sequence (P31645 whole entry): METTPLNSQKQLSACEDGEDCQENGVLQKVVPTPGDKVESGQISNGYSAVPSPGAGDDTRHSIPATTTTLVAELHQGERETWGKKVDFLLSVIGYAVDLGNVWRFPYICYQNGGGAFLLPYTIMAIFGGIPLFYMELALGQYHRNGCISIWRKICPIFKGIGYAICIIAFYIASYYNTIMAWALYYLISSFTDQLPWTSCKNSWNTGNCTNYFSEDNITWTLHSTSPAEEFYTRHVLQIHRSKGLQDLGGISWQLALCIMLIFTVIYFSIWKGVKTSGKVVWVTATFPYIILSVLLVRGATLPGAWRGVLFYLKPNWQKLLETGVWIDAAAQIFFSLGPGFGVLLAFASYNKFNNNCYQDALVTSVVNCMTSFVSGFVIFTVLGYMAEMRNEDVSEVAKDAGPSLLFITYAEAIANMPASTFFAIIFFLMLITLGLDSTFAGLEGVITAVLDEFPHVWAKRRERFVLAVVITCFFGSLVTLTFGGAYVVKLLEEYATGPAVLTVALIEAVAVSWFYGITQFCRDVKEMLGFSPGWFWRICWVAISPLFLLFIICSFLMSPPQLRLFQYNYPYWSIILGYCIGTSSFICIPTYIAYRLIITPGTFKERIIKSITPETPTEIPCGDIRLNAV

OCT3 = target: T2, OCT3 (Homo sapiens, UniProt O75751); test: Stereoselective uptake into OCT3-overexpressing HEK293 cells;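 also: intracellular accumulation in HEK293 cells measured by chiral HPLC-MS/MS after a 2 min substrate exposure at 37 °C, uptake normalized to total protein (bicinchoninic acid assay)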
T2 sequence (O75751 1-556): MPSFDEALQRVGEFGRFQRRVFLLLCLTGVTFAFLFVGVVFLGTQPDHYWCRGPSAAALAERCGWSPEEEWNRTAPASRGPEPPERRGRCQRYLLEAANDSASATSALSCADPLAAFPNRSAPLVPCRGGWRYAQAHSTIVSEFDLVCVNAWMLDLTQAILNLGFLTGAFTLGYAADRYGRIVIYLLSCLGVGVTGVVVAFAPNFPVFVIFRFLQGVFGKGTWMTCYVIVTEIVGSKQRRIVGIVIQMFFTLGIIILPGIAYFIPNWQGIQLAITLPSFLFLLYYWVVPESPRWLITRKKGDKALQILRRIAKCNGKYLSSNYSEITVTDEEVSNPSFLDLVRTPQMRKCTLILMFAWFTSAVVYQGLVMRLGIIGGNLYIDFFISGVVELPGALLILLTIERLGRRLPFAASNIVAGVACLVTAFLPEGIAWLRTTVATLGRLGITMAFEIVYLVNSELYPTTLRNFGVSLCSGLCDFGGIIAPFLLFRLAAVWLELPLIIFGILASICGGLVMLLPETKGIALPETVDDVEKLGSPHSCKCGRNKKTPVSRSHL
Method: (§1) All transport experiments were carried out in HEK293 cells stably overexpressing human MATs or OCTs. […] All cells were regularly cultivated in DMEM supplemented with 10% (v/v) FCS, penicillin (100 U/mL) and streptomycin (100 μg/mL)and kept in culture for no longer than 30 passages.
(§2) For the uptake experiments, 300,000 cells were plated in poly-D-lysine precoated 24-well plates 48 h ahead of the transport experiment. On the day of experiment, cells were initially washed once with 37 °C pre-warmed HBSS+ (Hanks buffered salt solution supplemented with 10 mM HEPES) and subsequently incubated with the substrates dissolved in pre-warmed HBSS+ for exactly two minutes. Incubation was stopped by adding ice-cold HBSS+ followed by two washing steps. After this, cells were lysed with 80% acetonitrile containing 10 ng/mL milnacipran as internal standard for high-performance liquid chromatography coupled to tandem mass spectrometry (HPLC-MS/MS) analysis. For every experiment, two additional wells per cell line were lysed using RIPA buffer for protein quantification. Total protein was quantified using the bicinchoninic acid assay [42]. This was later used for normalization of the uptake data.
(§3) Intracellularly accumulated test substances were quantified by HPLC-MS/MS analysis using a Shimadzu Nexera HPLC system with a SIL-30AC autosampler, a CTO-20AC column oven, a LC-30AD pump, and a CBM-20A controller (Shimadzu, Kyoto, Japan). Stereoselective chromatography was carried out on a [sequence] CBH HPLC column (100 × 3 mm inner dimension with 5 μM particle size; Sigma-Aldrich, Darmstadt, Germany) with a corresponding 10 × 3 mm guard column. Reversed phased chromatography was carried out using an ammonium acetate (NH4Ac) buffered aqueous mobile phase with isopropyl alcohol (IPA) as organic solvent. […] The order of elution of the enantiomers was obtained from available reference literature [43] or by applying enantiopure reference compounds to the chiral HPLC. […] Given the structural similarity of the investigated substances and the fact that separation was performed on the same column with almost identical mobile phases, we assume that this order of elution for our compound set is always the (R)- before the (S)-enantiomer.
(§4) Detection was performed with an API 4000 tandem mass spectrometer (AB SCIEX, Darmstadt, Germany) operating in multiple-reaction-monitoring mode. Quantification was performed using the Analyst 1.6.2 software (AB SCIEX, Darmstadt, Germany) and quantified by comparison to standard curves with known concentrations.
(§5) All uptake data were normalized to protein content to account for variation in the number of seeded sells. Transporter-mediated net uptake was calculated by subtracting uptake into empty vector-transfected control cells from uptake into transporter-transfected cells. Kinetic parameters were then determined after non-linear regression following the Michaelis–Menten equation (v = vmax × [S]/(Km + [S])) using GraphPad Prism (Version 5.01 for Windows, GraphPad Software, La Jolla, CA, USA). Vmax refers to the maximum transport velocity and Km is defined as the substance concentration required to reach half of vmax. The intrinsic clearance Clint was calculated as the quotient of vmax over Km.

DAT = DAT (Homo sapiens, UniProt Q01959); test: Stereoselective uptake into DAT-overexpressing HEK293 cells;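 also: intracellular accumulation measured by chiral HPLC-MS/MS in stably transfected HEK293 cells, normalized to total protein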
OCT2 [2] = target: T3, OCT2 (Homo sapiens, UniProt O15244); test: Stereoselective uptake into OCT2 (wild-type)-overexpressing HEK293 cells; settings: OCT2; for selectivity ratio at 2 min: human, ratio between enantiomers
T3 sequence (O15244 1-555 S270A): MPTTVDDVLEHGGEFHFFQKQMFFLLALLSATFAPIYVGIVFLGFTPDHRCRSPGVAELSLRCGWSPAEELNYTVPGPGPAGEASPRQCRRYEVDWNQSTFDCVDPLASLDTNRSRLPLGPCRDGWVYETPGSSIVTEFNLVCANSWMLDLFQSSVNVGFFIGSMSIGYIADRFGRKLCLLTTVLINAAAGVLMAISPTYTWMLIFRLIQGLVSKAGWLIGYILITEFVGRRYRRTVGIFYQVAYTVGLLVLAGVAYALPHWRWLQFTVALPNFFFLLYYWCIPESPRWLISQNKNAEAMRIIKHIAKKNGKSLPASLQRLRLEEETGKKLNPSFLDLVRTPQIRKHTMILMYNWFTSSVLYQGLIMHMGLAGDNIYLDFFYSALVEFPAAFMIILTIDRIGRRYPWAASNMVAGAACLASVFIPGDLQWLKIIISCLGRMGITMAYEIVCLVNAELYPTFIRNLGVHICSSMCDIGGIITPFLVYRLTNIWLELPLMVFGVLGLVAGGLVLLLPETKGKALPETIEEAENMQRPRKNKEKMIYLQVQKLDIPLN

OCT1 = target: T4, OCT1 (Homo sapiens, UniProt O15245); test: Stereoselective uptake into OCT1-overexpressing HEK293 cells; settings: for selectivity ratio at 2 min: human;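 as to all read-outs here: enantiomers quantified inside cells by chiral HPLC-MS/MS, uptake normalized to total protein from bicinchoninic acid assay, substrates applied in HBSS+ buffer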
T4 sequence (O15245 1-554): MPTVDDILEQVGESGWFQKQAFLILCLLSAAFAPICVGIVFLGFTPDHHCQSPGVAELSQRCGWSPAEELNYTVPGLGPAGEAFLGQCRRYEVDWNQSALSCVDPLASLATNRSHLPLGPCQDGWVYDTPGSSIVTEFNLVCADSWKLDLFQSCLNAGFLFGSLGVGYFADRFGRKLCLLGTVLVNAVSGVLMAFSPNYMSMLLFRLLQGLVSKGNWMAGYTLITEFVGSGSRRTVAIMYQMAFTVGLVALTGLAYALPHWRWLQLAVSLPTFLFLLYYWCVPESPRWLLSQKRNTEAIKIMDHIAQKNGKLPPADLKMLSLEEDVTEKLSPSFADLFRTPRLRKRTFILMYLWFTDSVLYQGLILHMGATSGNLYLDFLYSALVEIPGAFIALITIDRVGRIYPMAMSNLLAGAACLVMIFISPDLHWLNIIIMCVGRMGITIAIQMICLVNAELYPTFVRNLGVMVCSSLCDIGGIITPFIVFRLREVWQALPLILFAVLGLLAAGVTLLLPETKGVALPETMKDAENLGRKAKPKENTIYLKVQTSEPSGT
Method: as §1, §2, §3, §4, §5

[3] = tested on: OCT2 wild-type versus A270S variant; test: in vitro; settings: human, Transporter selectivity, OCT2 wild-type versus A270S, 100 μM racemic substance, two minutes; given as for WT
Method: as §1, §2
(§6) Intracellularly accumulated test substances were quantified by HPLC-MS/MS analysis using a Shimadzu Nexera HPLC system with a SIL-30AC autosampler, a CTO-20AC column oven, a LC-30AD pump, and a CBM-20A controller (Shimadzu, Kyoto, Japan). Stereoselective chromatography was carried out on a [sequence] CBH HPLC column (100 × 3 mm inner dimension with 5 μM particle size; Sigma-Aldrich, Darmstadt, Germany) with a corresponding 10 × 3 mm guard column. Reversed phased chromatography was carried out using an ammonium acetate (NH4Ac) buffered aqueous mobile phase with isopropyl alcohol (IPA) as organic solvent. […] The order of elution of the enantiomers was obtained from available reference literature [43] or by applying enantiopure reference compounds to the chiral HPLC. […] However, in every other case where the order of elution was available, the (R)-enantiomer eluted first. Given the structural similarity of the investigated substances and the fact that separation was performed on the same column with almost identical mobile phases, we assume that this order of elution for our compound set is always the (R)- before the (S)-enantiomer.
as §4, §5
(§7) HEK293 cells stably overexpressing wild-type or mutant OCT2 were incubated with 100 μM racemic substance for two minutes.

SERT [4] = target: T1, SERT; test: in vitro
SERT [5] = target: T1, SERT
NET = NET (Homo sapiens, UniProt P23975); test: Stereoselective uptake into NET-overexpressing HEK293 cells;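 also: intracellular enantiomers quantified in cell lysates by chiral HPLC-MS/MS after a 2 min substrate incubation, with uptake normalized to total cellular protein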
Chain of NET (P23975 whole entry): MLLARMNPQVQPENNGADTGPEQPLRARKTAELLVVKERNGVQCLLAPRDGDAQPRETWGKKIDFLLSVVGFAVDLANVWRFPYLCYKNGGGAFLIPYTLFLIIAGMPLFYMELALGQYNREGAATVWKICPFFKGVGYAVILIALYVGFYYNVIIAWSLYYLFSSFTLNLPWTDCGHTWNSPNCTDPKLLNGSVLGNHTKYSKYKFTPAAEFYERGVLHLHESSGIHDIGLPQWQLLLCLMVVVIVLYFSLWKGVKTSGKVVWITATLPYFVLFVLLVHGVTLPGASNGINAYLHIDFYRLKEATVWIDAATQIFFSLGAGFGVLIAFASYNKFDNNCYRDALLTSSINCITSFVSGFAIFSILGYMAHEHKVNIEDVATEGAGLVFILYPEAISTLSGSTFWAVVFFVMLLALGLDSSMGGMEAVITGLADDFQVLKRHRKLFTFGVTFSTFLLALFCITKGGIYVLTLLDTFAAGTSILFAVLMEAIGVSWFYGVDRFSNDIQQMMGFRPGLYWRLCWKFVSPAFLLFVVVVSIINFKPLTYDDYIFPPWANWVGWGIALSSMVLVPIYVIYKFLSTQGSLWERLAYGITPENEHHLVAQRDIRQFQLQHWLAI
Method: as §1, §2, §3, §4, §5

OCT2 (wild-type) = target: T5, OCT2 (wild-type) (Homo sapiens, UniProt O15244); test: Stereoselective uptake into OCT2 (wild-type)-overexpressing HEK293 cells; settings: human, Stereoselectivity OCT2_WT, 100 μM racemic substance, two minutes; uptake ratio of enantiomers, given as for (R)
T5 sequence (O15244 1-555 S270A): T3 sequence (O15244 1-555 S270A)

OCT2 [6] = target: T6, OCT2 (Homo sapiens, UniProt O15244, S270A); test: as above; settings: OCT2; ratio between enantiomers, given as for (R) or for 1
T6 sequence (O15244 1-555 S270A): T3 sequence (O15244 1-555 S270A)

OCT2 A270S variant = test: in vitro; settings: human, Stereoselectivity OCT2_A270S, 100 μM racemic substance, two minutes; uptake ratio of enantiomers, given as for (R)
Method: as §1, §2, §6, §4, §5, §7

Alpha-1 adrenoreceptor = settings: cited from earlier work
[7] = substrate: [H][C@](O)(CNC)c1ccc(O)cc1; test: cells, lysate or membranes; settings: other: HEK293 cells overexpressing human DAT; racemic substrate, two minutes; net uptake minus empty vector control; 37.0 °C;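 also: intracellular accumulation measured by chiral HPLC-MS/MS in stably transfected HEK293 cells, normalized to total protein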
[8] = substrate: NCC(O)c1cccc(O)c1; test: cells, lysate or membranes; settings: other: HEK293 cells overexpressing human DAT; racemic substrate, two minutes; net uptake minus empty vector control; 37.0 °C;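 as to Clint ± SEM: intracellular accumulation measured by chiral HPLC-MS/MS in stably transfected HEK293 cells, normalized to total protein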
[9] = substrate: NC[C@@H](O)c1ccc(O)cc1; test: cells, lysate or membranes; settings: other: HEK293 cells overexpressing human DAT; racemic substrate, two minutes; net uptake minus empty vector control; 37.0 °C;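 also: intracellular accumulation measured by chiral HPLC-MS/MS in stably transfected HEK293 cells, normalized to total protein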
[10] = substrate: NC[C@H](O)c1ccc(O)cc1; test: cells, lysate or membranes; settings: other: HEK293 cells overexpressing human DAT; racemic substrate, two minutes; net uptake minus empty vector control; 37.0 °C
[11] = substrate: CNC[C@@H](O)c1ccc(O)cc1; test: cells, lysate or membranes; settings: other: HEK293 cells overexpressing human DAT; racemic substrate, two minutes; net uptake minus empty vector control; 37.0 °C

Molecule: CNC[C@@H](O)c1cccc(O)c1 [(S)-Phenylephrine]
- Stereoselectivity Km (SERT [1]): 1.89 fold
- Stereoselectivity Vmax (SERT [1]): 1.49 fold
- Vmax ± SEM (SERT [1]): 529
- Km (SERT [1]; read-out: Km ± SEM, HEK293 cells overexpressing human SERT, racemic substrate, two minutes, net uptake minus empty vector control): 173 µM
- Clint ± SEM (OCT3; OCT3, quotient of vmax over Km): 4.23 mL × g Protein^−1 × min^−1
- Stereoselectivity Vmax (OCT3; OCT3, ratio between enantiomers, given as for (R) or for 1): 3.33 fold
- Stereoselectivity Km (OCT3; OCT3, ratio between enantiomers, given as for (R) or for 1 (first-eluting)): 1.19 fold
- selectivity ratio at 2 min (OCT3; human): 2.79
- Clint ± SEM (DAT; DAT, quotient of vmax over Km): 11.6 mL × g Protein^−1 × min^−1
- Stereoselectivity Vmax (DAT; DAT, ratio between enantiomers, given as for (R) or for 1): 1.56 fold
- Stereoselectivity Km (DAT; DAT, ratio between enantiomers, given as for (R) or for 1 (first-eluting)): 1.06 fold
- Vmax ± SEM (DAT; HEK293 cells overexpressing human DAT, racemic substrate, two minutes, net uptake): 392 pmol × mg Protein^−1 × min^−1
- selectivity ratio at 2 min (DAT; human): 1.48
- Km (DAT; read-out: Km ± SEM, HEK293 cells overexpressing human DAT, racemic substrate, two minutes, net uptake minus empty vector control): 33.7 µM
- Clint ± SEM (OCT2 [2]; quotient of vmax over Km): 27.3 mL × g Protein^−1 × min^−1
- selectivity ratio at 2 min (OCT2 [2]; Stereoselectivity ClInt, given as for (S) or for 2): 1.02
- selectivity ratio at 2 min (OCT2 [2]; Stereoselectivity Km, given as for (R) or for 1 (first-eluting)): 1.89
- selectivity ratio at 2 min (OCT2 [2]; Stereoselectivity Vmax, given as for (R) or for 1): 2.04
- Clint ± SEM (OCT1; OCT1, quotient of vmax over Km): 8.85 mL × g Protein^−1 × min^−1
- selectivity ratio at 2 min (OCT1; Stereoselectivity ClInt): 1.11
- selectivity ratio at 2 min (OCT1; Stereoselectivity Km, OCT1, ratio between enantiomers, given as for (S) or for 2 (second-eluting)): 1.02
- selectivity ratio at 2 min (OCT1; Stereoselectivity Vmax, OCT1, ratio between enantiomers, given as for (R) or for 1): 1.08
- selectivity ratio at 2 min, 100 μM [3]: 1.13
- selectivity ratio (SERT [4]): 2.82
- Clint ± SEM (SERT [5]): 11.6
- Vmax ± SEM (NET; HEK293 cells overexpressing human NET, racemic substrate, two minutes, net uptake): 220 pmol × mg Protein^−1 × min^−1
- Clint ± SEM (NET; NET, quotient of vmax over Km): 52.3 mL × g Protein^−1 × min^−1
- Stereoselectivity Vmax (NET; NET, ratio between enantiomers, given as for (R) or for 1): 1.79 fold
- selectivity ratio at 2 min (NET; human): 1.43
- Km (NET; read-out: Km ± SEM, HEK293 cells overexpressing human NET, racemic substrate, two minutes, net uptake minus empty vector control): 4.16 µM

Molecule: NC[C@H](O)c1ccc(O)c(O)c1 [Norepinephrine]
- selectivity ratio at 2 min, 100 μM (OCT2 (wild-type)): 2.05
- Stereoselectivity Vmax (OCT2 [6]): approximately two-fold
- selectivity ratio at 2 min, 100 μM (OCT2 A270S variant): 2.06
- Enantiomeric Activity Ratio (R/S) in Receptor Binding Alpha-1 (Alpha-1 adrenoreceptor): 33

Molecule: CNCC(O)c1ccc(O)cc1 (centres unmarked) [Synephrine]
- selectivity ratio at 2 min, 100 μM (OCT2 (wild-type)): 1.17
- selectivity ratio at 2 min, 100 μM (OCT2 A270S variant): 1
- Enantiomeric Activity Ratio (R/S) in Receptor Binding Alpha-1 (Alpha-1 adrenoreceptor): 75

B1: DAT (Homo sapiens) (protein)
chain: MSKSKCSVGLMSSVVAPAKEPNAVGPKEVELILVKEQNGVQLTSSTLTNPRQSPVEAQDRETWGKKIDFLLSVIGFAVDLANVWRFPYLCYKNGGGAFLVPYLLFMVIAGMPLFYMELALGQFNREGAAGVWKICPILKGVGFTVILISLYVGFFYNVIIAWALHYLFSSFTTELPWIHCNNSWNSPNCSDAHPGDSSGDSSGLNDTFGTTPAAEYFERGVLHLHQSHGIDDLGPPRWQLTACLVLVIVLLYFSLWKGVKTSGKVVWITATMPYVVLTALLLRGVTLPGAIDGIRAYLSVDFYRLCEASVWIDAATQVCFSLGVGFGVLIAFSSYNKFTNNCYRDAIVTTSINSLTSFSSGFVVFSFLGYMAQKHSVPIGDVAKDGPGLIFIIYPEAIATLPLSSAWAVVFFIMLLTLGIDSAMGGMESVITGLIDEFQLLHRHRELFTLFIVLATFLLSLFCVTNGGIYVFTLLDHFAAGTSILFGVLIEAIGVAWFYGVGQFSDDIQQMTGQRPSLYWRLCWKLVSPCFLLFVVVVSIVTFRPPHYGAYIFPDWANALGWVIATSSMAMVPIYAAYKFCSLPGSFREKLAYAIAPEKDRELVDRGEVRQFTLRHWLKV
- Km [7]: 36.8 µM
- Vmax [7]: 849 pmol × mg Protein^−1 × min^−1
- Km [8]: 15.6 µM and 18.6 µM
- Vmax [8]: 2003 pmol × mg Protein^−1 × min^−1 and 3103 pmol × mg Protein^−1 × min^−1
- Km [9]: 19.6 µM
- Vmax [9]: 1959 pmol × mg Protein^−1 × min^−1
- Km [10]: 20.5 µM
- Vmax [10]: 2054 pmol × mg Protein^−1 × min^−1
- Km [11]: 44.7 µM
- Vmax [11]: 463 pmol × mg Protein^−1 × min^−1
